Test results as given in ChEMBL document CHEMBL1148480, “Structure-activity studies of orexin a and orexin B at the human orexin 1 and orexin 2 receptors led to orexin 2 receptor selective and orexin 1 receptor preferring ligands” (J Med Chem, 2004).
Non-standard residues stand in square brackets, D forms with d. Residues, ends and D or L forms follow the SMILES beside them. pGlu = O=C1CC[C@@H](C(=O)O)N1

Columns and labels:
[1] = target: T1, Orexin receptor type 2 (Homo sapiens, UniProt O43614); experiment: Effective agonist concentration to the human Orexin receptor type 2 was determined using the Xlfit program; assay type: functional
T1 sequence (O43614 whole entry): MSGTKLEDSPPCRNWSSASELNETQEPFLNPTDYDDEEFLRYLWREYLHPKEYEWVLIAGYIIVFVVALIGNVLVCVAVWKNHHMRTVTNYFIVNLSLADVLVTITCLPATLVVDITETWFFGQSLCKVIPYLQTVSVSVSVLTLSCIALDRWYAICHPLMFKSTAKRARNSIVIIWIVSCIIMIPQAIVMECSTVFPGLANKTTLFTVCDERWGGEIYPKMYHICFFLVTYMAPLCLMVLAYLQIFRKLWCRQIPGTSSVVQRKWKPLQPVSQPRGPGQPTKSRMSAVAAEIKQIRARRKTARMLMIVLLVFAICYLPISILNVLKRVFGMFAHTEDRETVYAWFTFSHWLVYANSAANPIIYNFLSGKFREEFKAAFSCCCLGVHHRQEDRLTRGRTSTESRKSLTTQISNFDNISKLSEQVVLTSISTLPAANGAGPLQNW

[2] = target: T2, Orexin/Hypocretin receptor type 1 (Homo sapiens, UniProt O43613); experiment: Effective agonist concentration to human orexin receptor type 1 determined using the Xlfit program; assay type: functional
T2 sequence (O43613 whole entry): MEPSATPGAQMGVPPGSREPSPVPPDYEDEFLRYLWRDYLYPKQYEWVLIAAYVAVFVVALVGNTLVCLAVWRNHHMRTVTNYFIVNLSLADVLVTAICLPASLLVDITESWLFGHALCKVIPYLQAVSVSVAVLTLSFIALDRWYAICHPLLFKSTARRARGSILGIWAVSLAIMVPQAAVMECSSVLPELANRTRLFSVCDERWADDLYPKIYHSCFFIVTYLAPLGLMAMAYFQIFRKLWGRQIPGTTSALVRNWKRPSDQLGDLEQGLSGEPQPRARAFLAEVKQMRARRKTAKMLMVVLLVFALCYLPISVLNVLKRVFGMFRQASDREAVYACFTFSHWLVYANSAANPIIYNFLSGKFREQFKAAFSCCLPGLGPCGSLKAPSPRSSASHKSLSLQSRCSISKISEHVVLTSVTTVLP

SMILES	EC50 [1]	EC50 [2]
CC[C@H](C)[C@H](NC(=O)CNC(=O)[C@H](C)NC(=O)[C@@H]1CCCN1C(=O)[C@H](Cc1cnc[nH]1)NC(=O)[C@H](CC(N)=O)NC(=O)CNC(=O)[C@H](CO)NC(=O)[C@H](C)NC(=O)[C@H](CCC(N)=O)NC(=O)[C@H](CC(C)C)NC(=O)[C@H](CC(C)C)NC(=O)[C@H](CCCNC(=N)N)NC(=O)[C@H](CCC(N)=O)NC(=O)[C@H](CC(C)C)NC(=O)[C@H](CCCNC(=N)N)NC(=O)CNC(=O)[C@H](CCC(N)=O)NC(=O)[C@H](CC(C)C)NC(=O)CN)C(=O)N[C@@H](CC(C)C)C(=O)N[C@H](C(=O)N[C@@H](CCSC)C(=O)O)[C@@H](C)O (H-GLQGRLQRLLQASGNHPAGILTM-OH)	4.4 µM	> 1000 µM
CC[C@H](C)[C@H](NC(=O)CNC(=O)[C@H](C)NC(=O)[C@H](C)NC(=O)[C@H](Cc1cnc[nH]1)NC(=O)[C@H](CC(N)=O)NC(=O)CNC(=O)[C@H](C)NC(=O)CNC(=O)[C@H](Cc1cnc[nH]1)NC(=O)[C@H](CC(C)C)NC(=O)[C@H](CC(C)C)NC(=O)[C@H](CCC(=O)O)NC(=O)[C@H](Cc1ccc(O)cc1)NC(=O)[C@H](CC(C)C)NC(=O)[C@H](CCCNC(=N)N)NC(=O)CNC(=O)[C@@H]1CCCN1C(=O)[C@H](CC(=O)O)NC(=O)[C@@H]1CCCN1C(=O)[C@H](CC(C)C)NC(=O)[C@@H]1CCCN1C(=O)[C@@H]1CCC(=O)N1)C(=O)N[C@@H](CC(C)C)C(=O)N[C@H](C(=O)N[C@@H](CC(C)C)C(=O)O)[C@@H](C)O ([pGlu]PLPDPGRLYELLHGAGNHAAGILTL-OH)	0.61 µM	4.52 µM
CSCC[C@H](NC(=O)[C@@H](NC(=O)[C@H](CC(C)C)NC(=O)[C@H](C)NC(=O)CNC(=O)[C@H](C)NC(=O)[C@H](C)NC(=O)[C@H](Cc1c[nH]cn1)NC(=O)[C@H](CC(N)=O)NC(=O)CNC(=O)[C@H](CO)NC(=O)[C@H](C)NC(=O)[C@H](CCC(N)=O)NC(=O)[C@H](CC(C)C)NC(=O)[C@H](CC(C)C)NC(=O)[C@H](CCCN=C(N)N)NC(=O)[C@H](CCC(N)=O)NC(=O)[C@H](CC(C)C)NC(=O)[C@H](CCCN=C(N)N)NC(=O)CNC(=O)[C@H](CCC(N)=O)NC(=O)[C@H](CC(C)C)NC(=O)CN)[C@@H](C)O)C(=O)O (H-GLQGRLQRLLQASGNHAAGALTM-OH)	> 1000 µM	> 1000 µM
CC[C@H](C)[C@H](NC(=O)CNC(=O)[C@H](C)NC(=O)[C@H](C)NC(=O)[C@H](Cc1cnc[nH]1)NC(=O)[C@H](CC(N)=O)NC(=O)CNC(=O)[C@H](CO)NC(=O)[C@H](C)NC(=O)[C@H](CCC(N)=O)NC(=O)[C@H](CC(C)C)NC(=O)[C@H](CC(C)C)NC(=O)[C@H](CCCNC(=N)N)NC(=O)[C@H](CCC(N)=O)NC(=O)[C@H](CC(C)C)NC(=O)[C@@H](N)CCCNC(=N)N)C(=O)N[C@@H](CC(C)C)C(=O)N[C@H](C(=O)N[C@@H](CCSC)C(=O)O)[C@@H](C)O (H-RLQRLLQASGNHAAGILTM-OH)	0.57 µM	> 1000 µM
CC[C@H](C)[C@H](NC(=O)CNC(=O)[C@H](C)NC(=O)[C@H](C)NC(=O)[C@@H]1CCCN1C(=O)[C@H](CC(N)=O)NC(=O)CNC(=O)[C@H](CO)NC(=O)[C@H](C)NC(=O)[C@H](CCC(N)=O)NC(=O)[C@H](CC(C)C)NC(=O)[C@H](CC(C)C)NC(=O)[C@H](CCCNC(=N)N)NC(=O)[C@H](CCC(N)=O)NC(=O)[C@H](CC(C)C)NC(=O)[C@H](CCCNC(=N)N)NC(=O)CNC(=O)[C@H](CCC(N)=O)NC(=O)[C@H](CC(C)C)NC(=O)CN)C(=O)N[C@@H](CC(C)C)C(=O)N[C@H](C(=O)N[C@@H](CCSC)C(=O)O)[C@@H](C)O (H-GLQGRLQRLLQASGNPAAGILTM-OH)	0.84 µM	1.89 µM
CC(C)C[C@H](NC(=O)[C@@H]1CCCN1C(=O)[C@@H]1CCC(=O)N1)C(=O)N1CCC[C@H]1C(=O)N[C@@H](CC(=O)O)C(=O)N[C@@H](CS)C(=O)N[C@@H](CS)C(=O)N[C@@H](CCCN=C(N)N)C(=O)N[C@@H](CCC(N)=O)C(=O)N[C@@H](CCCCN)C(=O)N[C@H](C(=O)O)[C@@H](C)O	> 1000 µM	> 1000 µM

Next, values leading:

EC50 [1]	EC50 [2]	SMILES
0.19 µM	1.64 µM	CC[C@H](C)[C@H](NC(=O)CNC(=O)[C@H](C)NC(=O)[C@H](C)NC(=O)[C@H](Cc1cnc[nH]1)NC(=O)[C@H](CC(N)=O)NC(=O)CNC(=O)[C@H](CO)NC(=O)[C@H](C)NC(=O)[C@H](C)NC(=O)[C@H](CC(C)C)NC(=O)[C@H](CC(C)C)NC(=O)[C@H](CCCNC(=N)N)NC(=O)[C@H](CCC(N)=O)NC(=O)[C@H](CC(C)C)NC(=O)[C@H](CCCNC(=N)N)NC(=O)CNC(=O)[C@H](CCC(N)=O)NC(=O)[C@H](CC(C)C)NC(=O)CN)C(=O)N[C@@H](CC(C)C)C(=O)N[C@H](C(=O)N[C@@H](CCSC)C(=O)O)[C@@H](C)O (H-GLQGRLQRLLAASGNHAAGILTM-OH)
> 1000 µM	> 1000 µM	CC(C)C[C@H](NC(=O)CNC(=O)[C@@H]1CCCN1C(=O)[C@@H]1CCCN1C(=O)CNC(=O)[C@H](CO)NC(=O)[C@@H](N)CCCN=C(N)N)C(=O)N[C@@H](CCC(N)=O)C(=O)NCC(=O)N[C@@H](CCCN=C(N)N)C(=O)N[C@@H](CC(C)C)C(=O)N[C@@H](CCC(N)=O)C(=O)N[C@@H](CCCN=C(N)N)C(=O)O (H-RSGPPGLQGRLQR-OH)
0.38 µM	1.21 µM	CC[C@H](C)[C@H](NC(=O)CNC(=O)[C@H](C)NC(=O)[C@H](C)NC(=O)[C@H](Cc1cnc[nH]1)NC(=O)[C@H](CC(N)=O)NC(=O)CNC(=O)[C@H](C)NC(=O)CNC(=O)[C@H](Cc1cnc[nH]1)NC(=O)[C@H](CC(C)C)NC(=O)[C@H](CC(C)C)NC(=O)[C@H](CCC(=O)O)NC(=O)[C@H](Cc1ccc(O)cc1)NC(=O)[C@H](CC(C)C)NC(=O)[C@H](CCCNC(=N)N)NC(=O)[C@H](CS)NC(=O)[C@H](CO)NC(=O)[C@H](CS)NC(=O)[C@@H](N)[C@@H](C)O)C(=O)N[C@@H](CC(C)C)C(=O)N[C@H](C(=O)N[C@@H](CC(C)C)C(=O)O)[C@@H](C)O (H-TCSCRLYELLHGAGNHAAGILTL-OH)
0.57 µM	3.16 µM	CC[C@H](C)[C@H](NC(=O)CNC(=O)[C@H](C)NC(=O)[C@H](C)NC(=O)[C@H](Cc1cnc[nH]1)NC(=O)[C@H](CC(N)=O)NC(=O)CNC(=O)[C@H](CO)NC(=O)[C@H](C)NC(=O)[C@H](CCC(N)=O)NC(=O)[C@H](CC(C)C)NC(=O)[C@H](CC(C)C)NC(=O)[C@H](CCCNC(=N)N)NC(=O)[C@H](CCC(N)=O)NC(=O)[C@H](CC(C)C)NC(=O)[C@H](CCCNC(=N)N)NC(=O)CNC(=O)[C@H](CCC(N)=O)NC(=O)[C@H](CC(C)C)NC(=O)[C@H](C)N)C(=O)N[C@@H](CC(C)C)C(=O)N[C@H](C(=O)N[C@@H](CCSC)C(=O)O)[C@@H](C)O (H-ALQGRLQRLLQASGNHAAGILTM-OH)
15.6 µM	> 1000 µM	CC[C@H](C)[C@H](NC(=O)CNC(=O)[C@H](C)NC(=O)[C@H](C)NC(=O)[C@H](Cc1cnc[nH]1)NC(=O)[C@H](CC(N)=O)NC(=O)CNC(=O)[C@H](CO)NC(=O)[C@H](C)NC(=O)[C@H](CCC(N)=O)NC(=O)[C@H](CC(C)C)NC(=O)[C@H](CC(C)C)NC(=O)[C@H](CCCNC(=N)N)NC(=O)[C@H](CCC(N)=O)NC(=O)[C@H](CC(C)C)NC(=O)[C@H](CCCNC(=N)N)NC(=O)CNC(=O)[C@H](CCC(N)=O)NC(=O)[C@H](CC(C)C)NC(=O)CN)C(=O)N[C@@H](C)C(=O)N[C@H](C(=O)N[C@@H](CCSC)C(=O)O)[C@@H](C)O (H-GLQGRLQRLLQASGNHAAGIATM-OH)
